This note sets out measurements from PubChem BioAssay AID248 (DTP/NCI, 2004).

The assay deals with L1210 leukemia ip in BDF1 mice, survival T/C. Briefly: NCI In Vivo Anticancer Drug Screen. Data for tumor model L1210 Leukemia (intraperitoneal) in B6D2F1 (BDF1) mice. Conditions: endpoint: mean survival time, higher = longer survival. The method in brief:
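Read-out is survival time, reported as the treated-group measurement over the vehicle-control measurement.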

[1] abbreviates: dose: 100.0 mg/kg/injection, schedule: Q01DX009 (ip), vehicle: Klucel (hydroxypropylcellulose) (HPC).
Setting [2] is: dose: 200.0 mg/kg/injection, schedule: Q01DX009 (ip), vehicle: Klucel (hydroxypropylcellulose) (HPC).
[3] abbreviates: dose: 100.0 mg/kg/injection, schedule: Q01DX001 (ip), vehicle: carboxymethylcellulose (CMC).
Setting [4] is: dose: 200.0 mg/kg/injection, schedule: Q01DX001 (ip), vehicle: carboxymethylcellulose (CMC).
Where [5] appears, read: dose: 400.0 mg/kg/injection, schedule: Q01DX001 (ip), vehicle: carboxymethylcellulose (CMC).
Where [6] appears, read: dose: 100.0 mg/kg/injection, schedule: Q04DX003 (ip), vehicle: saline with Tween-80.
Where [7] appears, read: dose: 200.0 mg/kg/injection, schedule: Q04DX003 (ip), vehicle: saline with Tween-80.
The mark [8] stands for this setting: dose: 400.0 mg/kg/injection, schedule: Q04DX003 (ip), vehicle: saline with Tween-80.
Where [9] appears, read: dose: 100.0 mg/kg/injection, schedule: Q04DX002 (ip), vehicle: Klucel (hydroxypropylcellulose) (HPC).
[10] abbreviates: dose: 200.0 mg/kg/injection, schedule: Q04DX002 (ip), vehicle: Klucel (hydroxypropylcellulose) (HPC).
Setting [11] is: dose: 50.0 mg/kg/injection, schedule: Q01DX001 (ip), vehicle: carboxymethylcellulose (CMC).

Several values for one entry are separate records, joined by “and”; a condition that tells them apart may be missing. Equal values may be shown once. Inconclusive results and toxic doses are left out.

With `COC(=O)C1C2CC(O)C(C2)C1C(=O)OC` (stereo not drawn), the T/C reads like this: (dose: 12.5 mg/kg/injection, schedule: Q04DX003 (ip), vehicle: saline with Tween-80) 95 % of control; (dose: 25.0 mg/kg/injection, schedule: Q04DX003 (ip), vehicle: saline with Tween-80) 103 % of control; (dose: 50.0 mg/kg/injection, schedule: Q04DX003 (ip), vehicle: saline with Tween-80) 94 % of control.
`Nc1ncncc1-c1ccccc1[N+](=O)[O-]`: the T/C is 98 % of control (dose: 50.0 mg/kg/injection, schedule: Q01DX009 (ip), vehicle: Klucel (hydroxypropylcellulose) (HPC)); 98 % of control under setting [1]; 102 % of control under setting [2].
As to `CN1C(=O)N(C)C2(CCCC2)C1=O`, the T/C was 107 % of control under setting [3], 104 % of control under setting [4] and 104 % of control under setting [5].
For the compound `CCOC(=O)C1=CC(=O)C(C(=O)OCC)=CC1=O`, the T/C under setting [3] is 98 % of control, the T/C under setting [4] was 98 % of control and the T/C under setting [5] is 104 % of control.
Regarding `CCCCOB(CI)OCCCC`, the T/C reads like this: (dose: 6.25 mg/kg/injection, schedule: Q01DX009 (ip), vehicle: saline sonified) 96 % of control; (dose: 6.25 mg/kg/injection, schedule: Q04DX003 (ip), vehicle: saline sonified) 94 % of control; (dose: 12.5 mg/kg/injection, schedule: Q01DX009 (ip), vehicle: saline sonified) 100 % of control; (dose: 12.5 mg/kg/injection, schedule: Q04DX003 (ip), vehicle: saline sonified) 92 % of control; (dose: 25.0 mg/kg/injection, schedule: Q01DX009 (ip), vehicle: saline sonified) 104 % of control; (dose: 25.0 mg/kg/injection, schedule: Q04DX003 (ip), vehicle: saline sonified) 105 % of control.
Take `CC(=O)Oc1cn(C)c2c1C(=O)CC(C)(C)C2`: the T/C is 94 % of control (dose: 75.0 mg/kg/injection, schedule: Q04DX002 (ip), vehicle: Klucel (hydroxypropylcellulose) (HPC)); 105 % of control (dose: 150.0 mg/kg/injection, schedule: Q04DX002 (ip), vehicle: Klucel (hydroxypropylcellulose) (HPC)); 97 % of control (dose: 300.0 mg/kg/injection, schedule: Q04DX002 (ip), vehicle: Klucel (hydroxypropylcellulose) (HPC)).
As for `CCOC(=O)C1=CC=CC1=O`, the T/C by setting is: under setting [6], 102 % of control; under setting [7], 95 % of control; under setting [8], 91 % of control.
With `NC(=O)CN1C(=O)c2ccccc2C1=O`, the T/C was 97 % of control (dose: 100.0 mg/kg/injection, schedule: Q01DX009 (ip), vehicle: saline with Tween-80); 97 % of control under setting [6]; 89 % of control (dose: 200.0 mg/kg/injection, schedule: Q01DX009 (ip), vehicle: saline with Tween-80); 97 % of control under setting [7]; 91 % of control (dose: 400.0 mg/kg/injection, schedule: Q01DX009 (ip), vehicle: saline with Tween-80); 97 % of control under setting [8].
As for `COc1ccccc1C=O`, the T/C reads like this: under setting [1], 90 % of control; under setting [2], 90 % of control; (dose: 400.0 mg/kg/injection, schedule: Q01DX009 (ip), vehicle: Klucel (hydroxypropylcellulose) (HPC)) 106 % of control.
For `O=C(O)/C=C/c1ccc([N+](=O)[O-])s1`, the T/C reads like this: under setting [9], 90 % of control; under setting [10], 90 % of control.
Regarding `O=c1[nH]c(-c2ccccc2)nc(CN2CCCCC2)c1O`, the T/C is, setting by setting: under setting [11], 101 % of control; under setting [3], 101 % of control; under setting [4], 98 % of control; under setting [5], 95 % of control.
As for `COc1ccc(NC(=O)NCc2cccc(Cl)c2)cc1`, the T/C (dose: 50.0 mg/kg/injection, schedule: Q04DX002 (ip), vehicle: Klucel (hydroxypropylcellulose) (HPC)) was 100 % of control; the T/C under setting [9] is 103 % of control and 107 % of control; the T/C under setting [10] is 98 % of control; the T/C (dose: 400.0 mg/kg/injection, schedule: Q04DX002 (ip), vehicle: Klucel (hydroxypropylcellulose) (HPC)) was 110 % of control and 92 % of control.
With `COc1ccc(/C=N/n2c(=O)[nH]nc(C)c2=O)c(OC)c1OC`, the T/C by setting is: (dose: 100.0 mg/kg/injection, schedule: Q01DX009 (ip), vehicle: acetone) 96 % of control; under setting [6], 112 % of control; (dose: 200.0 mg/kg/injection, schedule: Q01DX009 (ip), vehicle: acetone) 93 % of control; under setting [7], 117 % of control; (dose: 400.0 mg/kg/injection, schedule: Q01DX009 (ip), vehicle: acetone) 102 % of control; under setting [8], 109 % of control.
On to `O=[N+]([O-])c1cccc2c1C1c3ccccc3C2c2ccccc21`, for which the T/C is 93 % of control under setting [11], 93 % of control under setting [3], 96 % of control under setting [4] and 96 % of control under setting [5].
As for `CS(=O)(=O)Nc1ccc(Nc2c3ccccc3nc3cc([N+](=O)[O-])ccc23)cc1`, the T/C was 118 % of control (dose: 0.02 mg/kg/injection, schedule: Q01DX009 (ip), vehicle: saline); 119 % of control (dose: 0.1 mg/kg/injection, schedule: Q01DX009 (ip), vehicle: acetone); 112 % of control (dose: 0.15 mg/kg/injection, schedule: Q01DX009 (ip), vehicle: acetone); 153 % of control (dose: 0.16 mg/kg/injection, schedule: Q01DX009 (ip), vehicle: saline); 116 % of control (dose: 0.6 mg/kg/injection, schedule: Q01DX001 (ip), vehicle: acetone); 151 % of control (dose: 0.82 mg/kg/injection, schedule: Q01DX009 (ip), vehicle: acetone). In addition, the T/C runs as follows: (dose: 1.25 mg/kg/injection, schedule: Q01DX009 (ip), vehicle: saline) 164 % of control; (dose: 1.25 mg/kg/injection, schedule: Q01DX009 (sc), vehicle: Klucel (hydroxypropylcellulose) (HPC)) 113 % of control; (dose: 1.56 mg/kg/injection, schedule: Q04DX003 (ip), vehicle: saline) 107 % of control; (dose: 2.5 mg/kg/injection, schedule: Q01DX009 (ip), vehicle: saline) 156 % of control and 220 % of control; (dose: 2.5 mg/kg/injection, schedule: Q01DX009 (sc), vehicle: Klucel (hydroxypropylcellulose) (HPC)) 118 % of control; (dose: 3.12 mg/kg/injection, schedule: Q04DX003 (ip), vehicle: saline) 107 % of control. The T/C (dose: 3.13 mg/kg/injection, schedule: Q01DX001 (ip), vehicle: saline) is 151 % of control; the T/C (dose: 5.0 mg/kg/injection, schedule: Q01DX009 (ip), vehicle: saline) was 184 % of control; the T/C (dose: 6.25 mg/kg/injection, schedule: Q01DX001 (ip), vehicle: saline) is 159 % of control; the T/C (dose: 6.25 mg/kg/injection, schedule: Q04DX003 (ip), vehicle: saline) was 107 % of control; the T/C (dose: 10.0 mg/kg/injection, schedule: Q01DX009 (sc), vehicle: Klucel (hydroxypropylcellulose) (HPC)) is 195 % of control; the T/C (dose: 12.5 mg/kg/injection, schedule: Q01DX001 (ip), vehicle: saline) is 161 % of control. The T/C was 240 % of control (dose: 25.0 mg/kg/injection, schedule: Q01DX001 (ip), vehicle: saline) and 168 % of control (dose: 100.0 mg/kg/injection, schedule: Q01DX001 (ip), vehicle: saline).
Take `O=C(O)c1c(Cl)c(Cl)c(Cl)c(Cl)c1-c1c2ccc(=O)c(O)c-2oc2c(O)c(O)ccc12`: the T/C was 102 % of control (dose: 100.0 mg/kg/injection, schedule: Q04DX003 (ip), vehicle: saline) and 93 % of control (dose: 200.0 mg/kg/injection, schedule: Q04DX003 (ip), vehicle: saline).
`Cc1nc(N)sc1CCCl`: the T/C (dose: 36.0 mg/kg/injection, schedule: Q01DX015 (ip), vehicle: carboxymethylcellulose (CMC)) was 100 % of control and the T/C (dose: 54.0 mg/kg/injection, schedule: Q01DX015 (ip), vehicle: carboxymethylcellulose (CMC)) is 94 % of control.
Turning to `COc1ccc(C(=Nc2ccccc2)C(=Nc2ccccc2)c2ccc(OC)cc2)cc1`, the T/C reads like this: under setting [6], 88 % of control; under setting [7], 89 % of control; under setting [8], 91 % of control.
For the compound `O=C(O)/C=C\C(=O)NCCCNC(=O)/C=C\C(=O)O`, the T/C reads like this: under setting [3], 101 % of control; under setting [4], 96 % of control; under setting [5], 93 % of control.
